Reference: patent US20240174727A1, “LONG-ACTING NATRIURETIC PEPTIDES AND USES THEREOF” (Eli Lilly and Company, priority 2022, published 2024)
Like-named read-outs stand apart in the source and are kept apart here. Numbered stars: 1 amine (or outer) side, 2 acyl side, 3 side chain; on linkers, the order of the positions; unused ones are H or OH. Bridge positions count the residues as written; N and C are the ends. Square brackets hold non-standard residues; d marks the D form. Peptide text beside a SMILES is read from it. * marks the point of attachment. C20 diacid = O=C(O)CCCCCCCCCCCCCCCCCCC(=O)*; γGlu = O=C(O)[C@H](CCC(=O)[*:2])N[*:1]; 4Pal = N[C@@H](Cc1ccncc1)C(=O)O; CH2 = C([*:1])[*:2]

Molecular target: T1, rat NPRA (Rattus norvegicus, UniProt P18910)
T1 construct: Full-Length cDNA Cloning and Generation of Cell Lines Overexpressing Natriuretic Peptide Receptors (NPRs); expressed in transfected cells; host or cells: Jump-in T-Rex HEK293 cells, pJTI R4 CMV-TO MCS pA vector, tetracycline induction
T1 sequence (P18910 29-1057): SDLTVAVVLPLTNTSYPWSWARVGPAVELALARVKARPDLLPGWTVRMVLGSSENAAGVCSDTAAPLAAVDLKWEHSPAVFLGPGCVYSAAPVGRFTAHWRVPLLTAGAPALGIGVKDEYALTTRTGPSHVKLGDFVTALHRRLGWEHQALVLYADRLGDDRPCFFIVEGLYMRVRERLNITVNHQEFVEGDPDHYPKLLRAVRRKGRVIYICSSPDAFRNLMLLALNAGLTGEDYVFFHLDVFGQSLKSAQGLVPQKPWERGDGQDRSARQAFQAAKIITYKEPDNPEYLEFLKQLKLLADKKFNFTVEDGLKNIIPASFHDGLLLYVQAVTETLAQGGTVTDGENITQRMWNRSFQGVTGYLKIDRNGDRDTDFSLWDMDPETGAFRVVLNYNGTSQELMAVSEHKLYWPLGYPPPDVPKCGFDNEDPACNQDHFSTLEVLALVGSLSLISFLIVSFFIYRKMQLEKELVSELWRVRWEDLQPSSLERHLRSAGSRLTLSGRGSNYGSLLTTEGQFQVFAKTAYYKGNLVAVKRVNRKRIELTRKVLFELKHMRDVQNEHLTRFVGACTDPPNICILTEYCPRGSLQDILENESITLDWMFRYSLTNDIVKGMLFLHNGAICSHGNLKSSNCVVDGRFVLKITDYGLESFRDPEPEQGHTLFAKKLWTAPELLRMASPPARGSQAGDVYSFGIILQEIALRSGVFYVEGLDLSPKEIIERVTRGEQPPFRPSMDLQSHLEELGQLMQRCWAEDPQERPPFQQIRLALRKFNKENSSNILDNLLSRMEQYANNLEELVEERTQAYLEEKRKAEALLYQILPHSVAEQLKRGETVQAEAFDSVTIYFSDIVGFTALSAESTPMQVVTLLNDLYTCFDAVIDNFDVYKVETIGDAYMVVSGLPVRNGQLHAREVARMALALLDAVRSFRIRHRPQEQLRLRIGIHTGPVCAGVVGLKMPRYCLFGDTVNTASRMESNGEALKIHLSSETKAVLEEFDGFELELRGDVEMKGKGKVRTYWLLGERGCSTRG
Assay: Rat NPRA cGMP activity assay (HTRF) in HEK293 cells overexpressing NPRA
Format: cell-based
Protocol: All sequences were verified by full-length sequencing performed by ACGT DNA Sequencing Services (Wheeling, IL). The target cDNA was cloned into pJTI R4 CMV-TO MCS pA vector and then co-transfected with pJT1R4 Int vector into Jump-in™ T-Rex™ HEK293 cells for mammalian inducible expression using Jump-in™ T-Rex™ HEK293 kit and Lipofectamine LTX and Plus Reagent following manufacturer's protocols, as briefly described below.
Jump-in™ T-Rex™ HEK293 cells were plated in a BioCOAT® poly-D-lysine coated 6-well plate (Becton Dickinson, cat no. 354413) at 1 million cells/well in 2 mL culture medium and incubated for 18 h at 37° C. and 5% CO2 to 50-70% confluence. A cDNA mix was made in a 50 mL tube by adding 1.5 μg target cDNA, 1.5 μg pJT1R4 Int vector, 3 μL Plus Reagent, and 300 μL Opti-MEM I sequentially into the tube. A reagent mix was made in a separate 50 mL tube by adding 7.5 μL Lipofectamine LTX into 300 μL Opti-MEM I. The mixtures were incubated for 5 min at room temperature. The cDNA mix was then transferred into the reagent mix, mixed well, and incubated for additional 30 min at room temperature. A 500 μL of cDNA/Lipofectamine complex was then transferred to the wells of the cell plate in which the culture medium was changed to 2 mL of transfection medium containing DMEM with 4.5 g/L D-glucose supplemented with 10% FBS-HI and 20 mM HEPES. Transfected cells were cultured for 48 h in an incubator at 37° C. and 5% CO2. A subclone or pool from each overexpressing cell line was maintained in culture medium with the addition of 2 mg/mL G418 sulfate for the clone selection based on its built-in resistance to G418 sulfate for at least 3 weeks with medium changed every 2-3 days.
NPRs were overexpressed in T-Rex™ HEK293 cells following the induction with 300 ng/mL tetracycline in culture medium for 48 h. Induced cell lines in an exponential growth phase were treated with 0.05% trypsin-EDTA for a few seconds at room temperature, harvested in cell medium containing FBS to neutralize the trypsin, counted, and cryopreserved at the density of 2 million cells/mL in cell preservation solution containing FBS-HI with 5% DMSO. Cryopreserved cells were stored at −80° C. for a few days prior to transferring to a liquid nitrogen tank. Induced cell lines were then used for suspension assays to measure the activity of polypeptides to stimulate cGMP production in cGMP assays or for the preparation of cell membranes to measure the binding activity of polypeptides in competitive radioligand binding assays, as described below.
Test polypeptides were added starting at 10 μM concentration and at 10-fold decreasing concentrations to obtain 8-point concentration-response curves (i.e., 10 μM to 1 pM). The quantity of cGMP generated was detected using HTRF® technology and normalized to maximum amount produced by 100 nM amidated rat ANP and the minimum amount produced by assay buffer. Detailed steps are outlined below.
Stock solutions of test polypeptides (2 mM) dissolved in DMSO were first diluted 100-fold in assay buffer containing HBSS with Ca^2+ and Mg^2+, 5 mM HEPES, 0.5 mM IBMX, and 0.1% BSA or 0.1% casein (pH 7.4). The polypeptides were further serially diluted in 1:10 dilution steps in assay buffer containing 0.1% BSA or 0.1% casein to generate 8-point 2× working stock solutions ranging from 20 μM to […].
A 10 μL cell suspension containing 4000 cells was plated in Costar® half-area white opaque 96-well plates (Corning, cat no. 3693). Then 10 μL of assay buffer (basal activity), 200 nM of amidated rat ANP (maximum activity) or 2× working stock solutions of test polypeptides were transferred into the plate. Final concentration of DMSO in each well was 0.5%. The plate was shaken for 15 sec and then incubated for 40 min at room temperature.
The cGMP generated was measured using cGMP kit following the manufacturer's directions, as described below.

[1] = assay buffer with 0.1% BSA, read-out: cGMP Assay (EC50, pM) w/BSA rNPRA

CC[C@H](C)[C@@H]1NC(=O)[C@H](CCCNC(=N)N)NC(=O)[C@H](CC(=O)O)NC(=O)[C@H]([C@@H](C)CC)NC(=O)[C@H](CCCNC(=N)N)NC(=O)[C@H](CCCCN)NC(=O)CNC(=O)[C@H](Cc2ccccc2)NC(=O)[C@@H](NC(=O)[C@H](CO)NC(=O)[C@H](CO)NC(=O)[C@H](CCCNC(=N)N)NC(=O)[C@H](CCCNC(=N)N)NC(=O)[C@H](Cc2ccncc2)NC(=O)[C@H](CO)NC(=O)CCOCCOCCOCCOCCOCCOCCOCCOCCOCCOCCOCCOCCOCCOCCOCCOCCOCCOCCOCCOCCOCCOCCOCCOCCNC(=O)CNC(=O)[C@H](CCCCN)NC(=O)[C@H](CCC(=O)O)NC(=O)[C@H](CCCCN)NC(=O)[C@H](CCC(=O)O)NC(=O)[C@H](CCCCN)NC(=O)[C@H](CCC(=O)O)NC(=O)CC[C@H](NC(=O)CCCCCCCCCCCCCCCCCCC(=O)O)C(=O)O)CSCSC[C@@H](C(=O)N2CCC[C@H]2C(=O)N[C@@H](CO)C(=O)N[C@@H](Cc2ccccc2)C(=O)N[C@@H](CCCNC(=N)N)C(=O)N[C@@H](Cc2c[nH]cn2)C(=O)NCC(=O)NCC(=O)N[C@@H](CCCCN)C(=O)N[C@@H](CO)C(=O)N[C@@H](CO)C(=O)NCC(=O)N[C@@H](C)C(=O)N2CCC[C@H]2C(=O)N2CCC[C@H]2C(=O)N2CCC[C@H]2C(=O)N[C@@H](CO)C(N)=O)NC(=O)CNC(=O)[C@H](CC(C)C)NC(=O)CNC(=O)[C@H](CO)NC(=O)[C@H](CCC(N)=O)NC(=O)[C@H](Cc2c[nH]cn2)NC(=O)CNC1=O [Example 109]
EC50 [1]: 276000 pM
EC50 (assay buffer with 0.1% casein, read-out: cGMP Assay (EC50, pM) w/Casein rNPRA): 16800 pM

{C20 diacid-γGlu}-EKEKEKGEKPRSSCFGKRIDRIGHQSGLGCPSFRHGSGSPSSGAPPPSG-NH2 (linker 14-30 via CH2) [Example 131]
EC50 (cGMP Assay (EC50, pM) w/Casein rNPRA, assay buffer with 0.1% casein): 2160 pM

CC[C@H](C)[C@@H]1NC(=O)[C@H](CCCNC(=N)N)NC(=O)[C@H](CC(=O)O)NC(=O)[C@H]([C@@H](C)CC)NC(=O)[C@H](CCCNC(=N)N)NC(=O)CNC(=O)CNC(=O)[C@H](Cc2ccccc2)NC(=O)[C@@H](NC(=O)[C@H](CO)NC(=O)[C@H](CO)NC(=O)[C@H](CCCNC(=N)N)NC(=O)[C@H](CCCNC(=N)N)NC(=O)[C@H](Cc2ccncc2)NC(=O)[C@H](CO)NC(=O)CNC(=O)[C@H](CCCCN)NC(=O)[C@H](CCC(=O)O)NC(=O)[C@H](CCCCN)NC(=O)[C@H](CCC(=O)O)NC(=O)[C@H](CCCCN)NC(=O)[C@H](CCC(=O)O)NC(=O)CC[C@H](NC(=O)CCCCCCCCCCCCCCCCCCC(=O)O)C(=O)O)CSSC[C@@H](C(=O)N2CCC[C@H]2C(=O)N[C@@H](CO)C(=O)N[C@@H](Cc2ccccc2)C(=O)N[C@@H](CCCNC(=N)N)C(=O)N[C@@H](Cc2c[nH]cn2)C(N)=O)NC(=O)CNC(=O)[C@H](CC(C)C)NC(=O)CNC(=O)[C@H](CO)NC(=O)[C@H](CCC(N)=O)NC(=O)[C@H](C)NC(=O)CNC1=O [Example 22] ({C20 diacid-γGlu}-EKEKEKGS[4Pal]RRSSCFGGRIDRIGAQSGLGCPSFRH-NH2; disulfide 14-30)
EC50 [1]: 192000 pM

CC[C@H](C)[C@@H]1NC(=O)[C@H](CCCNC(=N)N)NC(=O)[C@H](CC(=O)O)NC(=O)[C@H]([C@@H](C)CC)NC(=O)[C@H](CCCNC(=N)N)NC(=O)[C@H](CCCCN)NC(=O)CNC(=O)[C@H](Cc2ccccc2)NC(=O)[C@@H](NC(=O)[C@H](CO)NC(=O)[C@H](CO)NC(=O)[C@H](CCCNC(=N)N)NC(=O)[C@H](CCCNC(=N)N)NC(=O)[C@H](Cc2ccncc2)NC(=O)[C@H](CO)NC(=O)COCCOCCNC(=O)COCCOCCNC(=O)COCCOCCNC(=O)COCCOCCNC(=O)COCCOCCNC(=O)COCCOCCNC(=O)CNC(=O)[C@H](CCCCN)NC(=O)[C@H](CCC(=O)O)NC(=O)[C@H](CCCCN)NC(=O)[C@H](CCC(=O)O)NC(=O)[C@H](CCCCN)NC(=O)[C@H](CCC(=O)O)NC(=O)CC[C@H](NC(=O)CCCCCCCCCCCCCCCCCCC(=O)O)C(=O)O)CSCSC[C@@H](C(=O)N2CCC[C@H]2C(=O)N[C@@H](CO)C(=O)N[C@@H](Cc2ccccc2)C(=O)N[C@@H](CCCNC(=N)N)C(=O)N[C@@H](Cc2c[nH]cn2)C(=O)NCC(=O)N[C@@H](CO)C(=O)NCC(=O)N[C@@H](CO)C(=O)N2CCC[C@H]2C(=O)N[C@@H](CO)C(=O)N[C@@H](CO)C(=O)NCC(=O)N[C@@H](C)C(=O)N2CCC[C@H]2C(=O)N2CCC[C@H]2C(=O)N2CCC[C@H]2C(=O)N[C@@H](CO)C(=O)NCC(N)=O)NC(=O)CNC(=O)[C@H](CC(C)C)NC(=O)CNC(=O)[C@H](CO)NC(=O)[C@H](Cc2ccc(O)cc2)NC(=O)[C@H](Cc2c[nH]cn2)NC(=O)CNC1=O [Example 117]
EC50 (cGMP Assay (EC50, pM) w/BSA rNPRA, assay buffer with 0.1% BSA): 200000 pM
